Laboratory results published in the supplement of paper PMC10307832.

Experiments:
Assay in all cases: relative viability (nuclei count vs DMSO), 5 days (fraction); higher = more cells survive
[1] = compound: O=C(O)c1ccc2c(c1)nc(Nc1cccc(Cl)c1)c1ccncc12 [Silmitasertib] + CCNC(=O)c1noc(-c2cc(C(C)C)c(O)cc2O)c1-c1ccc(CN2CCOCC2)cc1 [Luminespib] (partner 0.01 µM)
In short: (§1)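 For relative viability, nuclei counts in treated wells were divided by those in vehicle wells. Lung cancer cell lines had been pin-tool dosed in 1536-well plates the day after seeding and cultured for 5 days, then fixed and stained in one step (final 0.05% Triton X-100, 1% formaldehyde, 1 ug/ml Hoechst) and imaged at 4×. Doses were one drug alone or a fixed anchor-drug dose plus five library-drug doses (not always all listed) in √10 steps, and values are duplicate-plate medians.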

[2] = compound: O=C(O)c1ccc2c(c1)nc(Nc1cccc(Cl)c1)c1ccncc12 [Silmitasertib] + Nc1ncn([C@H]2C[C@H](O)[C@@H](CO)O2)c(=O)n1 [Decitabine] (partner 2 µM)
In short: as §1

[3] = compound: O=C(O)c1ccc2c(c1)nc(Nc1cccc(Cl)c1)c1ccncc12 [Silmitasertib] + CC1(C)CCC(c2ccc(Cl)cc2)=C(CN2CCN(c3ccc(C(=O)NS(=O)(=O)c4ccc(N[C@H](CCN5CCOCC5)CSc5ccccc5)c(S(=O)(=O)C(F)(F)F)c4)cc3)CC2)C1 [Navitoclax] (partner 0.5 µM)
In short: as §1

[4] = compound: O=C(O)c1ccc2c(c1)nc(Nc1cccc(Cl)c1)c1ccncc12 [Silmitasertib] + CC(=O)Nc1cccc(-n2c(=O)n(C3CC3)c(=O)c3c(Nc4ccc(I)cc4F)n(C)c(=O)c(C)c32)c1 [Trametinib] (partner 0.02 µM)
In short: as §1

Silmitasertib + AZD7762 = compound: O=C(O)c1ccc2c(c1)nc(Nc1cccc(Cl)c1)c1ccncc12 [Silmitasertib] + NC(=O)Nc1cc(-c2cccc(F)c2)sc1C(=O)N[C@H]1CCCNC1 [AZD7762] (partner 0.2 µM)
In short: as §1

Cell Line | relative viability ([1]; first compound 0.04 µM) | relative viability ([1]; first compound 0.4 µM) | relative viability ([1]; first compound 1.265 µM) | relative viability ([1]; first compound 4 µM) | relative viability ([2]; first compound 0.04 µM) | relative viability ([2]; first compound 0.4 µM) | relative viability ([2]; first compound 1.265 µM) | relative viability ([2]; first compound 4 µM) | relative viability ([3]; first compound 0.04 µM) | relative viability ([3]; first compound 0.4 µM) | relative viability ([3]; first compound 1.265 µM) | relative viability ([3]; first compound 4 µM) | relative viability ([4]; first compound 0.04 µM) | relative viability ([4]; first compound 0.4 µM) | relative viability ([4]; first compound 1.265 µM) | relative viability ([4]; first compound 4 µM) | relative viability (Silmitasertib + AZD7762; first compound 0.04 µM) | relative viability (Silmitasertib + AZD7762; first compound 0.4 µM) | relative viability (Silmitasertib + AZD7762; first compound 1.265 µM) | relative viability (Silmitasertib + AZD7762; first compound 4 µM)
NCI-H1755 | 0.378 | 0.627 | 0.364 | 0.525 | 0.715 | 0.735 | 0.735 | 0.762 | 1.04 | 0.942 | 0.991 | 0.959 | 0.74 | 0.779 | 0.826 | 0.864 | 0.407 | 0.479 | 0.528 | 0.494
NCI-H1792 | 0.452 | 0.385 | 0.57 | 0.375 | 0.6 | 0.492 | 0.529 | 0.515 | 0.651 | 0.512 | 0.573 | 0.414 | 0.407 | 0.478 | 0.432 | 0.562 | 0.737 | 0.56 | 0.59 | 0.444
NCI-H1793 | 0.21 | 0.152 | 0.157 | 0.161 | 0.499 | 0.458 | 0.493 | 0.419 | 0.46 | 0.315 | 0.395 | 0.311 | 0.503 | 0.425 | 0.371 | 0.488 | 0.725 | 0.457 | 0.654 | 0.515
NCI-H1915 | 0.83 | – | 0.77 | 0.669 | 0.266 | – | 0.259 | 0.253 | 0.839 | – | 0.888 | 0.64 | 0.334 | – | 0.304 | 0.254 | 0.752 | – | 0.77 | 0.535
NCI-H1944 | 0.549 | 0.653 | 0.765 | 0.793 | 0.442 | 0.467 | 0.46 | 0.497 | 0.976 | 0.732 | 1.06 | 1.27 | 0.419 | 0.403 | 0.481 | 0.429 | 0.591 | 0.399 | 0.547 | 0.528
NCI-H1975 | 0.199 | – | 0.184 | 0.136 | 0.455 | – | 0.277 | 0.401 | 1.04 | 0.699 | 1.06 | 0.716 | 0.613 | – | 0.297 | 0.315 | 0.775 | – | 0.647 | 0.795
NCI-H1993 | 0.874 | 0.697 | 0.621 | 0.617 | 0.544 | 0.494 | 0.552 | 0.514 | 1.07 | 0.933 | 0.631 | 0.749 | 0.584 | 0.609 | 0.578 | 0.586 | 0.925 | 0.653 | 0.721 | 0.663
NCI-H2085 | 0.409 | – | 0.422 | 0.386 | 0.594 | 0.553 | 0.553 | 0.459 | 1.15 | 0.942 | 0.933 | 0.874 | 0.641 | 0.454 | 0.423 | 0.386 | 0.974 | 0.702 | 0.86 | 0.858
NCI-H2087 | 0.148 | – | 0.179 | 0.142 | 0.414 | 0.286 | 0.181 | 0.199 | 1.11 | 0.855 | 0.689 | 0.319 | 0.26 | 0.186 | 0.135 | 0.134 | 1.34 | 1.1 | 1.35 | 0.817
NCI-H2126 | 0.915 | 0.901 | 0.777 | 0.853 | 0.585 | 0.631 | 0.497 | 0.508 | 0.897 | 0.847 | 0.81 | 0.745 | 0.578 | 0.521 | 0.467 | 0.501 | 1.05 | 0.836 | 1.09 | 0.934
NCI-H2170 | 0.657 | 0.593 | 0.656 | 0.707 | 0.477 | 0.46 | 0.457 | 0.441 | 0.614 | 0.339 | 0.446 | 0.433 | 0.918 | 0.661 | 0.833 | 0.821 | 0.89 | 0.554 | 0.836 | 0.968
NCI-H2347 | 0.28 | – | 0.48 | 0.236 | 0.637 | 0.558 | 0.606 | 0.579 | 0.891 | 0.692 | 0.745 | 0.665 | 0.264 | 0.263 | 0.277 | 0.266 | 0.656 | 0.663 | 0.531 | 0.633
NCI-H2405 | 0.75 | 0.507 | 0.757 | 0.71 | 0.779 | 0.735 | 0.716 | 0.794 | 1.26 | 0.68 | 0.596 | 0.706 | 0.681 | 0.605 | 0.619 | 0.775 | 0.803 | 0.754 | 0.617 | 0.634
NCI-H3122 | 0.104 | 0.0852 | 0.0992 | 0.123 | 0.514 | 0.337 | 0.416 | 0.511 | 1.01 | 0.996 | 1.01 | 1.08 | 0.204 | 0.174 | 0.212 | 0.264 | 1.04 | 0.705 | 0.99 | 0.92
PC-3 [JPC-3] | 0.716 | 0.571 | 0.746 | 0.654 | 0.968 | 0.846 | 0.836 | 0.723 | 0.746 | 0.688 | 0.773 | 0.775 | 0.716 | 0.661 | 0.795 | 0.632 | 0.862 | 0.723 | 0.897 | 0.75
PC-14 | 0.188 | – | 0.14 | 0.179 | 0.265 | 0.214 | 0.271 | 0.192 | 1.12 | 1.09 | 1.07 | 1.11 | 1.07 | – | 0.802 | 0.633 | 0.336 | – | 0.399 | 0.321
